According to patent US20250382261A1 (The Broad Institute, Inc., priority 2021, published 2025):

What was measured:
[1] = system: A. baumannii (ATCC 17978); test: Checkerboard potentiation assay with novobiocin; type: cell-based; conditions: with novobiocin
Method: (§1) Bacterial strains and culture conditions. The following bacterial strains were used within this study; A. baumannii (ATCC 17978), K. pneumoniae (ATCC 43816), K. pneumoniae (ATCC 43816, expressing pGDP2:mcr-1), P. aeruginosa (PA01). Bacterial growth was in cation-adjusted Mueller-Hinton broth (MHB) at 37° C., and inoculum was prepared according to CLSI protocol (CLSI 2015).
(§2) Potentiation assays. Checkerboard analyses were conducted with each drug serially diluted at eight concentrations to create an 8×8 matrix. At least two biological replicates were done for each combination, and the means were used for FIC calculation. The FIC for each drug was calculated by dividing the concentration of the drug in the presence of codrug in a combination for a well showing <10% growth by the MIC for that drug alone. The FIC index (FICI) is the sum of the two FICs, with an FIC index≤0.5 deemed synergistic.

P. aeruginosa (PA01) = test: Checkerboard potentiation assay with novobiocin; type: cell-based
Method: as §1, §2
(§3) To probe the spectrum of activity of the present analogs beyond A. baumannii, their interactions with novobiocin were assessed against the high-priority Gram-negative pathogens Klebsiella pneumoniae and P. aeruginosa (FIG. 5).

LPS from E. coli EH100 = test: BODIPY-Cadaverine LPS displacement assay; type: binding; conditions: for LPS Displacement (EC50, μg/mL): BODIPY-cadaverine displacement from E. coli EH100 LPS
Method: BODIPY-Cadaverine LPS displacement assay. The BODIPY-cadaverine LPS displacement assay was performed as previously described (Wood et al. 2004. Combinatorial Chemistry & High Throughput Screening, 7: 239-49; Klobucar et al. 2021. ACS Chemical Biology, 16: 929-42). A solution of BODIPY-cadaverine (2.25 μM) and LPS from E. coli EH100 (5.25 μM) in Tris-HCl buffer (50 mM, pH 7.4) was prepared. 0.5 μL of compound and 49.5 μL of the Tris-HCl buffer with BODIPY-cadaverine and LPS solution were added to a Corning nonbinding surface black 384-well polystyrene plate. Fluorescence intensity was measured immediately with an excitation wavelength of 580 nm and an emission wavelength of 620 nm. EC50 values were calculated using a three-parameter logistic curve in GraphPad Prism 9.

[2] = HEK293 cytotoxicity assay (Cell Titer Glo); type: cell-based; conditions: human, HEK293T Cytotoxicity (IC50, μg/mL)
Method: Cytotoxicity Assays. HEK293 (ATCC CRL 1573) cells were left to adhere for 18 h at 7.5×10^3 cells per well in DMEM containing 10% FBS and 2 mM L-glutamine. Compound was added directly into the well. After 48 h of treatment Promega Cell Titer Glo 2.0® was added, shaken for 10 min, and luminescence read (Biotek Neo). AC50 values were calculated using a four-parameter logistic curve in GraphPad Prism 9.
Focusing on only the analogs that retained synergistic activity with novobiocin (FICI≤0.5), half-maximal activity (AC50) values were calculated against HEK293 cells using a CellTiter-Glo® based assay to approximate cell viability. […] Specifically, the FICI value for both P35 and P36 was 0.094 against A. baumannii, while their AC50 values were 235 μg/mL and 200 μg/mL, respectively.

[3] = system: K. pneumoniae (ATCC 43816); test: Checkerboard potentiation assay with novobiocin; type: cell-based
Method: as §1, §2, §3

N=C(N)c1ccc(OCCC2(CCOc3ccc(C(=N)N)cn3)CCCC2)nc1 [Analog P39]
FICI AB [1]: 0.094 | FICI PA (P. aeruginosa (PA01)): 0.3125 | LPS Displacement (EC50, μg/mL) (LPS from E. coli EH100): 48.34 µg/mL | IC50 at 48 h [2]: 53.7 µg/mL

N=C(N)c1ccc(OCCCCCOc2ccc(C(=N)N)nc2)cn1 [Analog P16]
FICI AB [1]: 0.25 | FICI KP [3]: 0.375 | FICI PA (P. aeruginosa (PA01)): 1 | LPS Displacement (EC50, μg/mL) (LPS from E. coli EH100): 60.19 µg/mL | IC50 at 48 h [2]: 183 µg/mL

N=C(N)c1ccc(OCC2(COc3ccc(C(=N)N)cc3)CCCCC2)cc1 [Analog P31]
FICI AB [1]: 0.094 | FICI KP [3]: 0.0937 | FICI PA (P. aeruginosa (PA01)): 0.187 | LPS Displacement (EC50, μg/mL) (LPS from E. coli EH100): 43.82 µg/mL | IC50 at 48 h [2]: 73.5 µg/mL

N=C(N)c1ccc(OCCC2(CCOc3ccc(C(=N)N)cc3)CCC(C(=O)O)CC2)cc1 (centres unmarked) [Analog P30]
FICI AB [1]: 0.625 | FICI KP [3]: 1 | FICI PA (P. aeruginosa (PA01)): 2 | LPS Displacement (EC50, μg/mL) (LPS from E. coli EH100): 119.4 µg/mL | IC50 at 48 h [2]: 1100 µg/mL

N=C(N)c1ccc(OCCCCCOc2ccc(C(=N)N)cc2F)c(F)c1 [Analog P12]
FICI AB [1]: 0.187 | FICI KP [3]: 0.187 | FICI PA (P. aeruginosa (PA01)): 0.5 | LPS Displacement (EC50, μg/mL) (LPS from E. coli EH100): 63.21 µg/mL | IC50 at 48 h [2]: 95.5 µg/mL

C[C@H](CCC[C@H](C)Oc1ccc(C(=N)N)cc1)Oc1ccc(C(=N)N)cc1 [Analog P15B]
FICI KP [3]: 0.187 | FICI PA (P. aeruginosa (PA01)): 0.187 | LPS Displacement (EC50, μg/mL) (LPS from E. coli EH100): 132.5 µg/mL | IC50 at 48 h [2]: 239 µg/mL

N/C(=N\O)c1ccc(OCCCCCOc2ccc(/C(N)=N/O)nc2)cn1 [Analog P19]
FICI KP [3]: 2 | FICI PA (P. aeruginosa (PA01)): 2 | IC50 at 48 h [2]: 135 µg/mL

N=C(N)c1ccc(OCCC[C@@H]2CCCN(c3ccc(C(=N)N)cc3)C2)cc1 [Analog P24A]
FICI KP [3]: 0.187 | FICI PA (P. aeruginosa (PA01)): 0.375 | LPS Displacement (EC50, μg/mL) (LPS from E. coli EH100): 91.74 µg/mL | IC50 at 48 h [2]: 77.9 µg/mL

N=C(N)c1ccc(OCCC2(CCOc3ccc(C(=N)N)cc3)CCCCCC2)cc1 [Analog P04]
FICI AB [1]: 0.14 | FICI KP [3]: 0.25 | FICI PA (P. aeruginosa (PA01)): 0.531 | LPS Displacement (EC50, μg/mL) (LPS from E. coli EH100): 15.97 µg/mL | IC50 at 48 h [2]: 37.1 µg/mL

N=C(N)c1ccc(OC2CCC(Oc3ccc(C(=N)N)cc3)CC2)cc1 (centres unmarked) [Analog P08]
FICI AB [1]: 0.375 | FICI KP [3]: 0.25 | FICI PA (P. aeruginosa (PA01)): 2 | LPS Displacement (EC50, μg/mL) (LPS from E. coli EH100): 288.7 µg/mL | IC50 at 48 h [2]: > 160 µg/mL

N=C(N)c1ccc(OCCC2(CCOc3ccc(C(=N)N)cc3)CCCC2)cc1 [Analog P02]
FICI AB [1]: 0.156 | FICI KP [3]: 0.187 | FICI PA (P. aeruginosa (PA01)): 0.281 | LPS Displacement (EC50, μg/mL) (LPS from E. coli EH100): 77.29 µg/mL | IC50 at 48 h [2]: 15.3 µg/mL

N=C(N)c1ccc(OCCCCCOc2ccc(C(=N)N)cn2)nc1 [Analog P20]
FICI AB [1]: 0.25 | FICI KP [3]: 0.25 | FICI PA (P. aeruginosa (PA01)): 2 | IC50 at 48 h [2]: > 320 µg/mL

N=C(N)c1ccc(OCCC[C@H]2CCCN(c3ccc(C(=N)N)cc3)C2)cc1 [Analog P24B]
FICI KP [3]: 0.187 | FICI PA (P. aeruginosa (PA01)): 0.75 | LPS Displacement (EC50, μg/mL) (LPS from E. coli EH100): 149.5 µg/mL | IC50 at 48 h [2]: 57.9 µg/mL

c1c[nH]c(-c2ccc(OCCCCCOc3ccc(-c4ncc[nH]4)cc3)cc2)n1 [Analog P11]
FICI KP [3]: 2 | FICI PA (P. aeruginosa (PA01)): 2 | IC50 at 48 h [2]: 104 µg/mL

CC(CCCC(C)Oc1ccc(C(=N)N)cc1)Oc1ccc(C(=N)N)cc1 (centres unmarked) [Analog P15]
FICI KP [3]: 0.25 | FICI PA (P. aeruginosa (PA01)): 0.281

N=C(N)c1ccc(OCCNCCOc2ccc(C(=N)N)cc2)cc1 [Analog P31A]
FICI AB [1]: 0.5 | FICI PA (P. aeruginosa (PA01)): 2 | LPS Displacement (EC50, μg/mL) (LPS from E. coli EH100): 497.8 µg/mL | IC50 at 48 h [2]: > 640 µg/mL

C[C@@H](CCCOc1ccc(C(=N)N)cc1)COc1ccc(C(=N)N)cc1 [Analog P22R]
FICI KP [3]: 0.25 | FICI PA (P. aeruginosa (PA01)): 0.3125 | LPS Displacement (EC50, μg/mL) (LPS from E. coli EH100): 26.02 µg/mL | IC50 at 48 h [2]: 94.2 µg/mL

N=C(N)c1ccc(OCCC2CCCCC2CCOc2ccc(C(=N)N)cc2)cc1 (centres unmarked) [Analog P21]
FICI AB [1]: 0.094 | FICI KP [3]: 0.046 | FICI PA (P. aeruginosa (PA01)): 1 | LPS Displacement (EC50, μg/mL) (LPS from E. coli EH100): 13.08 µg/mL | IC50 at 48 h [2]: 19.2 µg/mL

CCC(CC)(CCOc1ccc(C(=N)N)cc1)CCOc1ccc(C(=N)N)cc1 [Analog P07]
FICI AB [1]: 0.0625 | FICI KP [3]: 0.156 | FICI PA (P. aeruginosa (PA01)): 1 | Increase of LPS binding affinity compared to pentamidine (LPS from E. coli EH100; BODIPY displacement EC50 relative to pentamidine): > 10 fold | LPS Displacement (EC50, μg/mL) (LPS from E. coli EH100): 19.04 µg/mL | IC50 at 48 h [2]: 31.2 µg/mL

C[C@H](CCCOc1ccc(C(=N)N)cc1)COc1ccc(C(=N)N)cc1 [Analog P22S]
FICI KP [3]: 0.25 | FICI PA (P. aeruginosa (PA01)): 0.375 | LPS Displacement (EC50, μg/mL) (LPS from E. coli EH100): 59.08 µg/mL | IC50 at 48 h [2]: 53.7 µg/mL

CC(C)(CCOc1ccc(C(=N)N)cc1)CCOc1ccc(C(=N)N)cc1 [Analog P06]
FICI AB [1]: 0.187 | FICI KP [3]: 0.156 | FICI PA (P. aeruginosa (PA01)): 0.375 | LPS Displacement (EC50, μg/mL) (LPS from E. coli EH100): 62.47 µg/mL | IC50 at 48 h [2]: 69.1 µg/mL

N=C(N)c1ccc(OCCC2(CCOc3ccc(C(=N)N)cc3)CCCCC2)cc1 [Analog P03]
FICI AB [1]: 0.094 | FICI KP [3]: 0.078 | FICI PA (P. aeruginosa (PA01)): 0.625

C[C@@H](CCC[C@H](C)Oc1ccc(C(=N)N)cc1)Oc1ccc(C(=N)N)cc1 [Analog P15A]
FICI KP [3]: 0.25 | FICI PA (P. aeruginosa (PA01)): 0.5 | LPS Displacement (EC50, μg/mL) (LPS from E. coli EH100): 118.2 µg/mL | IC50 at 48 h [2]: 106 µg/mL

N=C(N)c1ccc(OCCN(CCOc2ccc(C(=N)N)cc2)CCC(F)(F)F)cc1 [Analog P34]
FICI AB [1]: 0.25 | FICI PA (P. aeruginosa (PA01)): 0.375 | LPS Displacement (EC50, μg/mL) (LPS from E. coli EH100): 134.3 µg/mL | IC50 at 48 h [2]: > 80 µg/mL

N=C(NC1CCCCC1)c1ccc(OCCCCCOc2ccc(C(=N)NC3CCCCC3)nc2)cn1 [Analog P18]
FICI KP [3]: 1 | FICI PA (P. aeruginosa (PA01)): 2 | LPS Displacement (EC50, μg/mL) (LPS from E. coli EH100): 218.8 µg/mL | IC50 at 48 h [2]: 22.2 µg/mL

N=C(N)c1ccc(OCCC(N)CCOc2ccc(C(=N)N)cc2)cc1 (centres unmarked) [Analog P37]
FICI AB [1]: 0.75 | FICI PA (P. aeruginosa (PA01)): 2

N=C(N)c1ccc(OCCC(CCOc2ccc(C(=N)N)cc2)N2CCCC2)cc1 (centres unmarked) [Analog P38]
FICI AB [1]: 0.75 | FICI PA (P. aeruginosa (PA01)): 2 | LPS Displacement (EC50, μg/mL) (LPS from E. coli EH100): 202 µg/mL | IC50 at 48 h [2]: > 80 µg/mL

colistin [reference compound]
LPS Displacement (EC50, μg/mL) (LPS from E. coli EH100): 7.81 µg/mL

C[C@H](CCC[C@@H](C)Oc1ccc(C(=N)N)cc1)Oc1ccc(C(=N)N)cc1 [Analog P15C]
FICI KP [3]: 0.25 | FICI PA (P. aeruginosa (PA01)): 0.375 | LPS Displacement (EC50, μg/mL) (LPS from E. coli EH100): 148.8 µg/mL
